Data reported in ChEMBL document CHEMBL5291721, “A preclinical secondary pharmacology resource illuminates target-adverse drug reaction associations of marketed drugs” (Nat Commun, 2023).

How the values were obtained:
Estrogen receptor = target: T1, Estrogen receptor (Homo sapiens, UniProt P03372); format: functional
T1 sequence (P03372 whole entry): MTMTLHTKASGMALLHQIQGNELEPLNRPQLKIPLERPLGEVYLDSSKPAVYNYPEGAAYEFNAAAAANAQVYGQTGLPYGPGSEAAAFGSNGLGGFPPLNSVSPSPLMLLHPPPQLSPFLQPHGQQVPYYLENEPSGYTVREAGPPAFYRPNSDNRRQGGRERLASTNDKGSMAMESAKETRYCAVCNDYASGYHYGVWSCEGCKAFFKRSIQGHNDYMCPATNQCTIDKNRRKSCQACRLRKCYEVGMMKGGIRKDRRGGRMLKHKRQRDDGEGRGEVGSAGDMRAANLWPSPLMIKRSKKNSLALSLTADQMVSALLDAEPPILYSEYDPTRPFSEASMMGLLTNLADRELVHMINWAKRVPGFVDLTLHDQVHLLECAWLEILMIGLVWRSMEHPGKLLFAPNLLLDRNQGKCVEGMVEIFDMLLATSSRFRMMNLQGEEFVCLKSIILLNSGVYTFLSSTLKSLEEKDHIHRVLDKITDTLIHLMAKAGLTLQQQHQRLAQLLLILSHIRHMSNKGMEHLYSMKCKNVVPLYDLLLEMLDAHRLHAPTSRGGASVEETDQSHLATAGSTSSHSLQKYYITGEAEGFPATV

[1] = target: T2, Peroxisome proliferator-activated receptor gamma (Homo sapiens, UniProt P37231); format: functional
T2 sequence (P37231 whole entry): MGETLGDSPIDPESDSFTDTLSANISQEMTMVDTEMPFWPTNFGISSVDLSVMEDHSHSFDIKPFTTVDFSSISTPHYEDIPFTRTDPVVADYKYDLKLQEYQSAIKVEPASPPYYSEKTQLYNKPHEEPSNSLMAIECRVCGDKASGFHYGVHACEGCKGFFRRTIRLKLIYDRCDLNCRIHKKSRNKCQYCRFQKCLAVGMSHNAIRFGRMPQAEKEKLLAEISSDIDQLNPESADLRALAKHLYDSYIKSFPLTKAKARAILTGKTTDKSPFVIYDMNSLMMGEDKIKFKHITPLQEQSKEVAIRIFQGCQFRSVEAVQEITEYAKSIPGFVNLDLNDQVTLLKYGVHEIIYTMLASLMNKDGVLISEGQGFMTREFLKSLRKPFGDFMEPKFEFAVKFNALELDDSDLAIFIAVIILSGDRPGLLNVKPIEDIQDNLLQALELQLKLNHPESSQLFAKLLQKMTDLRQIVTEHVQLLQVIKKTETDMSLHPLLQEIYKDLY

Thromboxane A2 receptor [2] = target: T3, Thromboxane A2 receptor (Homo sapiens, UniProt P21731); format: functional
T3 sequence (P21731 whole entry): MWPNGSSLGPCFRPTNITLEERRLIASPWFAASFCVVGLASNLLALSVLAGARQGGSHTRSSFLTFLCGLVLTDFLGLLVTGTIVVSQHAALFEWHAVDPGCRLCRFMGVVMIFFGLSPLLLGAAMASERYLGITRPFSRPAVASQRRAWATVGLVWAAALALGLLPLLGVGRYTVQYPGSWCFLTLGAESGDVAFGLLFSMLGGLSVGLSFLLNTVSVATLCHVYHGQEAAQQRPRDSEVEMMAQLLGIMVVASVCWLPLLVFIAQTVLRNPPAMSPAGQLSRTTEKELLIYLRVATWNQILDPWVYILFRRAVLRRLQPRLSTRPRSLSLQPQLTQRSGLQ

Thromboxane A2 receptor [3] = target: T3, Thromboxane A2 receptor; format: functional, cell-based

Measured: AC50
Also: assay procedure not described here.

CC(C)NNC(=O)c1ccncc1 [IPRONIAZID]
> 30 µM: all assays above
